Read-outs that look alike come from different tables or passages of the source.
How the values were obtained:
Avi-tagged FL MALT-1 = Avi-tagged FL MALT-1 (Homo sapiens (Human), UniProt Q9UDY8); experiment: MALT-1 Fluorogenic Peptide Cleavage Assay (MALT1 inhibition assay); assay type: biochemical; conditions: Ac-LRSR-AMC peptide substrate, 30 min pre-incubation, 90 min reaction at room temperature
Outline: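 Cleavage of Ac-LRSR-AMC, read as fluorescence at 342/441 nm after 90 min at room temperature, with substrate working stocks of 50 μM (Km) or 280 μM (10×Km). Enzyme, Avi-tagged full-length MALT-1 (40 nM stock), was first pre-incubated 30 min with compound in citrate/HEPES pH 6.89 buffer with TCEP, EDTA, CHAPS and 2% DMSO; IC50 fitted from normalised % inhibition.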

[1] = test system: NF-kB reporter in Jurkat cells; experiment: NF-kB reporter assay in Jurkat cells stimulated with aCD3/aCD28/PMA; assay type: cell-based; conditions: Jurkat cells, 1 hr compound pre-incubation, aCD3/aCD28/PMA stimulation 4 hr, One-Glo readout, read-out: NF-kB Reporter Assay IC50
Outline: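 Luminescence (One-Glo) from the NF-kB reporter yielded IC50 values. Stimulation lasted 4 h at 37° C with aCD3, aCD28 and PMA (final 5, 5 and 0.03 […]), after 1 h compound pre-exposure of 25,000 Jurkat cells per well in serum-free RPMI.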

Avi-tagged FL MALT-1, sequence (Q9UDY8 whole entry): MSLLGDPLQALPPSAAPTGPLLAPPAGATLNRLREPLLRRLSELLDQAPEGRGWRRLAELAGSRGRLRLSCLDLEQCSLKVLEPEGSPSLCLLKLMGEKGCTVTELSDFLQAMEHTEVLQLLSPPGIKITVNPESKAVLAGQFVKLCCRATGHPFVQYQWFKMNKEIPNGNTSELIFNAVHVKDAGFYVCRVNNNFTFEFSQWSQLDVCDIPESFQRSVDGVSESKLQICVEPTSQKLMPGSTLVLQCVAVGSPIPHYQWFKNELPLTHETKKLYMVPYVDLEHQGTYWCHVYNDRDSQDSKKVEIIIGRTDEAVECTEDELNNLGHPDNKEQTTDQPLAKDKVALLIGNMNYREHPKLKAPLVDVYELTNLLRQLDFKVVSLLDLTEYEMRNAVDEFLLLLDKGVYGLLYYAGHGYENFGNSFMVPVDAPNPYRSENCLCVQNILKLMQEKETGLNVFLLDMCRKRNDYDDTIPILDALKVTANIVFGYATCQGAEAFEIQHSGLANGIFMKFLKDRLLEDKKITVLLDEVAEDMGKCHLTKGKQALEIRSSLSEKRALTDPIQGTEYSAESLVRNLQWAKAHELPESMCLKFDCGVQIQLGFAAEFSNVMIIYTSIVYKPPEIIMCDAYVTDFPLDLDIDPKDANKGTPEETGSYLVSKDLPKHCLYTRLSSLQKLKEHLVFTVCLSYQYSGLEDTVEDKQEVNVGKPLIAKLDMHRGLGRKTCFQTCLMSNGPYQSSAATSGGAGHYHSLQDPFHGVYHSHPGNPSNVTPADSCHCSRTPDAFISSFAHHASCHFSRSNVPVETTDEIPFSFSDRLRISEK

Compound	IC50 (Avi-tagged FL MALT-1) [nM]	IC50 ([1]; Homo sapiens) [nM]	IC50 [1] [nM]
COc1ccc2cnn(C)c2c1NS(=O)(=O)c1cnn(-c2cc(N3CC4CC4C3)ccn2)c1 (stereo not shown) [Compound I-417]	> 2500	< 400	
COc1ncc2cnn(C)c2c1NS(=O)(=O)c1cnn(-c2cc(C(C)(C)O)ccn2)c1 [Compound I-260, 1-(4-(2-hydroxypropan-2-yl)pyridin-2-yl)-N-(6-methoxy-1-methyl-1H-pyrazolo[4,3-c]pyridin-7-yl)-1H-pyrazole-4-sulfonamide]	400 to 1000	400 to 1000	
COc1ccc2cnn(C)c2c1NS(=O)(=O)c1cnn(-c2cc(C(C)OC)ccn2)c1 (single isomer, unassigned) [Compound I-291, N-(6-methoxy-1-methyl-1H-indazol-7-yl)-1-(4-(1-methoxyethyl)pyridin-2-yl)-1H-pyrazole-4-sulfonamide]	≤ 400		< 400
Cc1n[nH]c2cccc(N(C)S(=O)(=O)c3cnn(-c4cc(C(F)(F)F)ccn4)c3)c12 [Compound I-65, N-Methyl-N-(3-Methyl-1H-Indazol-4-yl)-1-(4-(Trifluoromethyl)Pyridin-2-yl)-1H-Pyrazole-4-Sulfonamide]	400 to 1000	400 to 1000	
Cn1ncc2cccc(NS(=O)(=O)c3cnn(-c4cc(C5(O)CCOCC5)ccn4)c3)c21 [Compound I-129, 1-(4-(4-hydroxytetrahydro-2H-pyran-4-yl)pyridin-2-yl)-N-(1-methyl-1H-indazol-7-yl)-1H-pyrazole-4-sulfonamide]	> 2500	400 to 1000	
CCC(C)(O)c1ccnc(-n2cc(S(=O)(=O)Nc3c(OC)ccc4cnn(C)c34)cn2)c1 (single isomer, unassigned) [Compound I-315, 1-(4-(2-hydroxybutan-2-yl)pyridin-2-yl)-N-(6-methoxy-1-methyl-1H-indazol-7-yl)-1H-pyrazole-4-sulfonamide]	400 to 1000	< 400	
COc1ccc2cnn(C)c2c1NS(=O)(=O)c1cnn(-c2cnn3c2OCCC3)c1 [Compound I-467, N-(6-methoxy-1-methylindazol-7-yl)-1-{5H,6H,7H-pyrazolo[3,2-b] [1,3]oxazin-3-yl} pyrazole-4-sulfonamide]	> 2500	> 2500	
COc1ccc2cnn(C)c2c1NS(=O)(=O)c1cnn(-c2cc([C@@H](C)N3CCCCC3)ccn2)c1 [Compound I-463]	> 2500	400 to 1000	
COc1ccc2cnn(C)c2c1NS(=O)(=O)c1cnn(-c2cc(N3CCC(C)(C)C3)ccn2)c1 [Compound I-434]	> 2500	< 400	
[2H]C([2H])([2H])n1ncc2cnc(OC)c(N(C)S(=O)(=O)c3cnn(-c4cc(C(F)(F)F)ccn4)c3)c21 [Compound I-354, N-(6-methoxy-1-(methyl-d3)-1H-pyrazolo[4,3-c]pyridin-7-yl)-N-methyl-1-(4-(trifluoromethyl)pyridin-2-yl)-1H-pyrazole-4-sulfonamide]	≤ 400	< 400	
Cc1ccnc(-n2cc(S(=O)(=O)N(C)c3cccc4[nH]nc(C)c34)cn2)c1 [Compound I-66, N-Methyl-N-(3-Methyl-1H-Indazol-4-yl)-1-(4-Methylpyridin-2-yl)-1H-Pyrazole-4-Sulfonamide]	> 2500	> 2500	
COc1ncc2cnn(C)c2c1NS(=O)(=O)c1cnn(-c2cc(N3CC(C)C3)ccn2)c1 [Compound I-397]	1000 to 2500	< 400	
COc1ncc2cnn(C)c2c1NS(=O)(=O)c1cnn(-c2cc(C(C)O)ccn2)c1 (single isomer, unassigned) [Compound I-292, 1-(4-(1-hydroxyethyl)pyridin-2-yl)-N-(6-methoxy-1-methyl-1H-pyrazolo[4,3-c]pyridin-7-yl)-1H-pyrazole-4-sulfonamide]	400 to 1000	400 to 1000	
CN1CCC(n2cc(S(=O)(=O)Nc3cccc4cnn(C)c34)cn2)CC1 [Compound I-345]	> 2500	400 to 1000	
COc1ccc2cnn(C)c2c1NS(=O)(=O)c1cnn(-c2cc(C(C)O)ccn2)c1 (stereo not shown) [Compound I-339, 1-(4-(1-hydroxyethyl)pyridin-2-yl)-N-(6-methoxy-1-methyl-1H-indazol-7-yl)-1H-pyrazole-4-sulfonamide]	≤ 400		< 400
COc1ccc2cnn(C)c2c1NS(=O)(=O)c1cnn(-c2cc(N3CCC4(CC4)C3)ccn2)c1 [Compound I-433]	> 2500	< 400	
COc1ccc2cnn(C)c2c1NS(=O)(=O)c1cnn(-c2cc(N3CC(OC)C3)ccn2)c1 [Compound I-445]	> 2500	< 400	
COc1ncc2cnn(C)c2c1NS(=O)(=O)c1cnn(-c2cc(N3CCC3)ccn2)c1 [Compound I-388, 1-[4-(azetidin-1-yl)pyridin-2-yl]-N-{6-methoxy-1-methylpyrazolo[4,3-c]pyridin-7-yl}pyrazole-4-sulfonamide]	400 to 1000	< 400	
COc1ccc2cnn(C)c2c1NS(=O)(=O)c1cnn(-c2cc(N3CC4CC(C4)C3)ccn2)c1 [Compound I-404]	> 2500	< 400	
COc1ccc2cnn(C)c2c1NS(=O)(=O)c1cnn(-c2cc(N3CC(F)C3)ccn2)c1 [Compound I-442]	1000 to 2500	< 400	
Cn1ncc2cccc(NS(=O)(=O)c3cnn(-c4cc(C5(C#N)CCCC5)ccn4)c3)c21 [Compound I-448, 1-(4-(1-cyanocyclopentyl)pyridin-2-yl)-N-(1-methyl-1H-indazol-7-yl)-1H-pyrazole-4-sulfonamide]	> 2500	< 400	

The remaining lines, values ahead:

IC50 (Avi-tagged FL MALT-1) [nM]	IC50 ([1]; Homo sapiens) [nM]	IC50 [1] [nM]	Compound
> 2500	< 400		Cn1ncc2cccc(NS(=O)(=O)c3cnn(-c4cc(N5CC(C)(C#N)C5)ccn4)c3)c21 [Compound I-450, 1-(4-(3-cyano-3-methylazetidin-1-yl)pyridin-2-yl)-N-(1-methyl-1H-indazol-7-yl)-1H-pyrazole-4-sulfonamide]
> 2500	< 400		Cn1ncc2cccc(NS(=O)(=O)c3cnn(-c4cc(N5C(=O)OCC5(C)C)ccn4)c3)c21 [Compound I-321]
> 2500	< 400		Cn1ncc2cccc(NS(=O)(=O)c3cnn(-c4cc(C5(F)CCOCC5)ccn4)c3)c21 [Compound I-130, 1-(4-(4-fluorotetrahydro-2H-pyran-4-yl)pyridin-2-yl)-N-(1-methyl-1H-indazol-7-yl)-1H-pyrazole-4-sulfonamide]
400 to 1000	< 400		Cn1ncc2cccc(NS(=O)(=O)c3cnn(-c4cc(C(F)(F)F)c(F)cn4)c3)c21 [Compound I-122, 1-(5-fluoro-4-(trifluoromethyl)pyridin-2-yl)-N-(1-methyl-1H-indazol-7-yl)-1H-pyrazole-4-sulfonamide]
≤ 400	< 400		COc1ccc2cnn(C)c2c1NS(=O)(=O)c1cnn(-c2cc(C(F)(F)F)ccn2)c1 [Compound I-72, N-(6-Methoxy-1-(Methyl-D3)-1H-Indazol-7-yl)-1-(4-(Trifluoromethyl)Pyridin-2-yl)-1H-Pyrazole-4-Sulfonamide]
400 to 1000	400 to 1000		COc1ccc2cnn(C)c2c1NS(=O)(=O)c1cnn(-c2cc(C(F)(F)F)ncn2)c1 [Compound I-24, N-(6-Methoxy-1-Methyl-1H-Indazol-7-yl)-1-(6-(Trifluoromethyl)Pyrimidin-4-yl)-1H-Pyrazole-4-Sulfonamid]
> 2500	< 400		CC1CC(F)(c2ccnc(-n3cc(S(=O)(=O)Nc4cccc5cnn(C)c45)cn3)c2)C1 (stereo not shown) [Compound I-394]
≤ 400	< 400		COc1ccc2cnn(C)c2c1NS(=O)(=O)c1cnn(-c2ccc(C(F)(F)F)cn2)c1 [Compound I-22, N-(6-Methoxy-1-Methyl-1H-Indazol-7-yl)-1-(5-(Trifluoromethyl)Pyridin-2-yl)-1H-Pyrazole-4-Sulfonamide]
> 2500	< 400		Cn1ncc2cccc(NS(=O)(=O)c3cnn(-c4cc(C5(O)CC(C)(C)C5)ccn4)c3)c21 [Compound I-477, 1-(4-(1-hydroxy-3,3-dimethylcyclobutyl)pyridin-2-yl)-N-(1-methyl-1H-indazol-7-yl)-1H-pyrazole-4-sulfonamide]
> 2500	< 400		Cn1ncc2cccc(NS(=O)(=O)c3cnn(-c4cc(NC(C)(C)CO)ccn4)c3)c21 [Compound I-324, 1-(4-((1-Hydroxy-2-Methylpropan-2-yl)Amino)Pyridin-2-yl)-N-(1-Methyl-1H-Indazol-7-yl)-1H-Pyrazole-4-Sulfonamide]
> 2500	< 400		CN1CC(F)(c2ccnc(-n3cc(S(=O)(=O)Nc4cccc5cnn(C)c45)cn3)c2)C1 [Compound I-251, 1-(4-(3-fluoro-1-methylazetidin-3-yl)pyridin-2-yl)-N-(1-methyl-1H-indazol-7-yl)-1H-pyrazole-4-sulfonamide]
> 2500	< 400		CN1CCN(c2ccnc(-n3cc(S(=O)(=O)Nc4cccc5cnn(C)c45)cn3)c2)C1=O [Compound I-322]
> 2500		< 400	Cn1ncc2cccc(NS(=O)(=O)c3cnn(-c4cc(C5(F)CC(F)C5)ccn4)c3)c21 (stereo not shown) [Compound I-376, 1-(4-(1,3-difluorocyclobutyl)pyridin-2-yl)-N-(1-methyl-1H-indazol-7-yl)-1H-pyrazole-4-sulfonamide]
> 2500	< 400		CCC(CC)(OC)c1ccnc(-n2cc(S(=O)(=O)Nc3cccc4cnn(C)c34)cn2)c1 [Compound I-296]
